Data as given in ChEMBL document CHEMBL2016567, “Novel acridinedione derivatives: design, synthesis, SIRT1 enzyme and tumor cell growth inhibition studies” (Bioorg Med Chem Lett, 2012).
Active and inactive are the calls of the source. No cut-off for these calls is given here.

Experiments:
[1] = target: T1, NAD-dependent protein deacetylase sirtuin-1 (Homo sapiens) (UniProt Q96EB6); experiment: Inhibition of human SIRT1 using Fluor-de-Lys as substrate at 50 uM
T1 sequence (whole entry): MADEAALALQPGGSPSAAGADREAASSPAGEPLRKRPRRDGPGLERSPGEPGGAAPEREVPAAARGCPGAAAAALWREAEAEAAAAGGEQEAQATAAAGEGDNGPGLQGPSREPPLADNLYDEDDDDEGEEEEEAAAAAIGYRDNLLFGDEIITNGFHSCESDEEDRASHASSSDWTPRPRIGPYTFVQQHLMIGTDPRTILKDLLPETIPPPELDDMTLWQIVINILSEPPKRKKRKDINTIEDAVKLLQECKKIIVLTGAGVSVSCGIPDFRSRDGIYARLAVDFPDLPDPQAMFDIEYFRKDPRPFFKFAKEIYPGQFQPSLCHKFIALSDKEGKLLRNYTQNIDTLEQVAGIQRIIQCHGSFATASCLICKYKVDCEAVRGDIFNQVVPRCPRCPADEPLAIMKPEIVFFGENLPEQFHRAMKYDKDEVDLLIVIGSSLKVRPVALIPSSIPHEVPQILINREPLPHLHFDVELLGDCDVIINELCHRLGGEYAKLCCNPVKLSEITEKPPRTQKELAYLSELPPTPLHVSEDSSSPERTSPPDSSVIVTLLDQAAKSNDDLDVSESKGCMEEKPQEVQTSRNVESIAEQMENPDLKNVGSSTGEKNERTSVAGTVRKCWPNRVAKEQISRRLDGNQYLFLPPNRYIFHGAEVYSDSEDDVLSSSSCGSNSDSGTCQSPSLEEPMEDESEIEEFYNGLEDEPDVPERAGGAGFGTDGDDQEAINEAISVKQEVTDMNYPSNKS

HEK293 = experiment: Cytotoxicity against human HEK293 cells at 10 uM; type: cell-based; conditions: hek293, 10 µM
MDA-MB-231 [2] = experiment: Growth inhibition of human MDA-MB-231 cells; type: functional, cell-based
K562 = experiment: Growth inhibition of human K562 cells; type: functional, cell-based
[3] = target: T2, NAD-dependent protein deacetylase sirtuin-1 (Homo sapiens, UniProt Q96EB6); experiment: Inhibition of human SIRT1 using Fluor-de-Lys as substrate
T2 sequence (Q96EB6 whole entry): T1 sequence (whole entry)

[4] = target: T1, NAD-dependent protein deacetylase sirtuin-1 (Homo sapiens); experiment: Inhibition of SIRT1 in human MDA-MB-231 cells assessed as increase in p53 acetylation at lysine 382 residue after 24 hrs by Western blot analysis; type: cell-based
MDA-MB-231 [5] = experiment: Decrease in SIRT1 protein level in human MDA-MB-231 cells after 24 hrs by Western blot analysis; type: functional, cell-based

Row | Structure (SMILES) | inhibition [1] | IC50 (MDA-MB-231 [2]) [µM] | IC50 (K562) [µM] | IC50 [3] [µM] | inhibition [4] | Activity (HEK293) | Activity (MDA-MB-231 [5])
1 | CC1(C)CC(=O)C2=C(C1)N(NC(=O)c1ccncc1)C1=C(C(=O)CC(C)(C)C1)C2c1ccccc1OCc1ccccc1 | 72.6% | 5 | 10 |  |  | Non-toxic | 
2 | CC1(C)CC(=O)C2=C(C1)N(Nc1ccccc1)C1=C(C(=O)CC(C)(C)C1)C2c1ccccc1OCc1ccccc1 | 82.1% | 50 |  | 11.1 |  | Non-toxic | 
3 | CC1(C)CC(=O)C2=C(C1)N(NC(=O)c1ccncc1)C1=C(C(=O)CC(C)(C)C1)C2c1cccc(OCc2ccccc2)c1 | 53.7% | > 50 | 10 |  |  | Non-toxic | 
4 | Cc1ccc(C(=O)Nc2ccc(S(=O)(=O)O)c3cc(S(=O)(=O)O)cc(S(=O)(=O)O)c23)cc1NC(=O)c1cccc(NC(=O)Nc2cccc(C(=O)Nc3cc(C(=O)Nc4ccc(S(=O)(=O)O)c5cc(S(=O)(=O)O)cc(S(=O)(=O)O)c45)ccc3C)c2)c1 [SURAMIN] | 53.9% | 31.2 | 18.5 |  |  | Non-toxic | 
5 | COc1ccc(C(=O)NN2C3=C(C(=O)CC(C)(C)C3)C(c3ccc(OCc4ccccc4)cc3)C3=C2CC(C)(C)CC3=O)c(OC)n1 | 55.1% | 0.31 |  | 25 |  | Non-toxic | 
6 | CC1(C)CC(=O)C2=C(C1)N(NC(=O)c1ccccc1)C1=C(C(=O)CC(C)(C)C1)C2c1cccc(OCc2ccccc2)c1 | 21.5% |  |  |  |  |  | 
7 | CC1(C)CC(=O)C2=C(C1)N(NC(=O)c1ccc(Cl)cc1Cl)C1=C(C(=O)CC(C)(C)C1)C2c1cccc(OCc2ccccc2)c1 | 4.7% |  |  |  |  |  | 
8 | CC1(C)CC(=O)C2=C(C1)N(NC(=O)c1ccccc1)C1=C(C(=O)CC(C)(C)C1)C2c1ccccc1OCc1ccccc1 | 39.7% |  |  |  |  |  | 
9 | COc1ccc(C(=O)NN2C3=C(C(=O)CC(C)(C)C3)C(c3ccccc3OCc3ccccc3)C3=C2CC(C)(C)CC3=O)c(OC)n1 | 35.2% |  |  |  |  |  | 
10 | COc1ccc(C(=O)NN2C3=C(C(=O)CC(C)(C)C3)C(c3cccc(OCc4ccccc4)c3)C3=C2CC(C)(C)CC3=O)c(OC)n1 | 35.6% |  |  |  |  |  | 
11 | COc1cccc2c1C(=O)c1c(O)c3c(c(O)c1C2=O)C[C@@](O)(C(=O)CO)C[C@@H]3O[C@H]1C[C@H](N)[C@H](O)[C@H](C)O1 [DOXORUBICIN] |  | 10 |  |  |  | Non-toxic | 
12 | CC1(C)CC(=O)C2=C(C1)N(Nc1ccccc1)C1=C(C(=O)CC(C)(C)C1)C2c1cccc(OCc2ccccc2)c1 | 51.4% | 0.99 |  | 40.1 |  | Non-toxic | 

Second part, led by results:

Row | inhibition [1] | IC50 (MDA-MB-231 [2]) [µM] | IC50 (K562) [µM] | IC50 [3] [µM] | inhibition [4] | Structure (SMILES) | Activity (HEK293) | Activity (MDA-MB-231 [5])
13 | 39% |  |  |  |  | CC1(C)CC(=O)C2=C(C1)N(NC(=O)c1ccc([N+](=O)[O-])cc1)C1=C(C(=O)CC(C)(C)C1)C2c1ccccc1OCc1ccccc1 |  | 
14 | 33.2% |  |  |  |  | CC1(C)CC(=O)C2=C(C1)N(Nc1ccc([N+](=O)[O-])cc1[N+](=O)[O-])C1=C(C(=O)CC(C)(C)C1)C2c1cccc(OCc2ccccc2)c1 |  | 
15 | 35.6% |  |  |  |  | CC1(C)CC(=O)C2=C(C1)N(NC(=O)c1ccc([N+](=O)[O-])cc1)C1=C(C(=O)CC(C)(C)C1)C2c1ccc(OCc2ccccc2)cc1 |  | 
16 | 52% | 3.16 |  | 46 |  | CC1(C)CC(=O)C2=C(C1)N(NC(=O)c1ccccc1)C1=C(C(=O)CC(C)(C)C1)C2c1ccc(OCc2ccccc2)cc1 | Non-toxic | 
17 | 55.2% | 1.38 |  | 43.1 |  | CC1(C)CC(=O)C2=C(C1)N(Nc1ccccc1)C1=C(C(=O)CC(C)(C)C1)C2c1ccc(OCc2ccccc2)cc1 | Non-toxic | 
18 | 33.6% |  |  |  |  | CC1(C)CC(=O)C2=C(C1)N(NC(=O)c1ccc([N+](=O)[O-])cc1)C1=C(C(=O)CC(C)(C)C1)C2c1cccc(OCc2ccccc2)c1 |  | 
19 | inactive | > 50 | > 50 |  |  | CC1(C)CC(=O)C2=C(C1)N(NC(=O)c1ccncc1)C1=C(C(=O)CC(C)(C)C1)C2c1ccc(OCc2ccccc2)cc1 | Non-toxic | 
20 | 83.2% | 0.25 |  | 10.1 | Dose-dependent effect | CC1(C)CC(=O)C2=C(C1)N(Nc1ccc([N+](=O)[O-])cc1[N+](=O)[O-])C1=C(C(=O)CC(C)(C)C1)C2c1ccccc1OCc1ccccc1 | Non-toxic | Dose-dependent effect
21 | 3.6% |  |  |  |  | CC1(C)CC(=O)C2=C(C1)N(NC(=O)c1ccc(Cl)cc1Cl)C1=C(C(=O)CC(C)(C)C1)C2c1ccc(OCc2ccccc2)cc1 |  | 
22 | 54.8% | 6.63 |  | 43.3 |  | CC1(C)CC(=O)C2=C(C1)N(Nc1ccc([N+](=O)[O-])cc1[N+](=O)[O-])C1=C(C(=O)CC(C)(C)C1)C2c1ccc(OCc2ccccc2)cc1 | Non-toxic | 
